Structures can show the parent of a compound that is named as a salt.
System: platelet aggregation (platelet rich plasma (PRP))
Assay: Platelet Aggregation Assay (inhibition of agonist-induced platelet aggregation in platelet rich plasma)
Assay type: cell-based
Settings: with esterase, ester prodrugs preincubated with 100 IU/mL porcine liver esterase 2 hours at 37° C., human PRP, 100 μM ADP, read-out: Platelet Aggregation Assay IC50 (with esterase)
Method: Platelet Aggregation Assay: Venous blood was obtained from the arm of a healthy human donor who was drug-free and aspirin-free for at least two weeks prior to blood collection. Blood was collected into 10 mL citrated Vacutainer tubes. The blood was centrifuged for 15 minutes at 150× g at room temperature, and platelet-rich plasma (PRP) was removed. The remaining blood was centrifuged for 15 minutes at 1500× g at room temperature, and platelet-poor plasma (PPP) was removed. Samples were assayed on a aggregometer (PAP-4 Platelet Aggregation Profiler), using PPP as the blank (100% transmittance). 200 μL of PRP was added to each micro test tube, and transmittance was set to 0%. 20 μL of various agonists (ADP, collagen, arachidonate, epinephrine, thrombin) were added to each tube, and the aggregation profiles were plotted (% transmittance versus time). The results are expressed as % inhibition of agonist-inducedplatelet aggregation. For the IC50 evaluation, the test compounds were added at various concentrations prior to the activation of the platelets.
Ester prodrugs were preincubated (10^-3 M F.C.) with 100 IU/mL Porcine liver esterase (Sigma Chemical Co., St. Louis, Mo., #E-3128) for 2 hours at 37° C. Aliquots are then diluted in 0.1M Tris, p H 7.4, to the desired concentrations. Aliquots of 20 μl of the esterase pretreated prodrugs are added to 200 μl of human platelet rich plasma. Samples were placed in platelet profiler (aggregometer) for 8 minutes at 37° C., followed by the addition of 100 μM Adenosine Diphosphate, (Sigma Chemical Co., St. Louis, Mo., #A-6521), to induce platelet aggregation. Platelet aggregation was allowed to proceed for 5 minutes. Percent inhibition is calculated using percent aggregation in the presence of the test compound divided by percent aggregation of control, times 100. This value is subtracted from 100, yielding percent inhibition. Calculation of IC50 is performed on a Texas Instruments TI59 with an IC50 program.
Table A below sets forth the antiplatelet activity of representative compounds of the present invention. The indicated compounds were tested for their ability to inhibit platelet aggregation (using platelet rich plasma (PRP)). The IC50 value (the concentration of antagonist which inhibits platelet aggregation by 50% relative to a control lacking the antagonist) is shown. In Table A the IC50 values are expressed as: +++=IC50 of <10 μM; ++=IC50 of […]; +=IC50 of 50-100 μM (μM=micromolar).

| Structure (SMILES) | IC50 |
| --- | --- |
| CCOC(=O)[C@H](Cc1ccccc1)NC(=O)CSc1nnc(-c2ccc(C(=N)N)cc2)o1 [Example 399, Ethyl N-[2-{2-(4-amidinophenyl)-1,3,4-oxadiazol-5-ylthio}-acetyl]-(S)-phenylalanine HCl salt] | 10 to 50 µM |
| CCCCOC(=O)NC[C@H](NC(=O)CSc1nnc(-c2ccc(C(=N)N)cc2)s1)C(=O)OC [Example 440, Methyl N^2-[2-{2-(4-amidinophenyl)-1,3,4-thiodiazol-5-ylthio}-acetyl]-N^3-(n-butyloxycarbonyl)-2,3-(S)-diaminopropionate HCl salt] | < 10 µM |
